Molecular target: T1, human V1a receptor (Homo sapiens, UniProt P37288)
T1 construct: expressed in transfected cells; host or cells: HEK293 cells, transiently transfected; membranes prepared
Assay: human V1a receptor binding (3H-Vasopressin SPA, HEK293 membranes)
Conditions: 3H-Vasopressin displacement, membranes of HEK293 cells transiently transfected with human V1a; Ki from IC50 by Cheng-Prussoff; read-out: pKi (hV1a) (converted)
Procedure: The human V1a receptor was cloned by RT-PCR from total human liver RNA. The coding sequence was subcloned in an expression vector after sequencing to confirm the identity of the amplified sequence. […] Cell membranes were prepared from HEK293 cells transiently transfected with the expression vector and grown in 20 liter fermenters with the following protocol.
50 g of cells are resuspended in 30 ml freshly prepared ice cold Lysis buffer (50 mM HEPES, 1 mM EDTA, 10 mM magnesium dichloride adjusted to pH=7.4+complete cocktail of protease inhibitor (Roche Diagnostics)). Homogenized with Polytron for 1 min and sonicated on ice for 2×2 minutes at 80% intensity (Vibracell sonicator). The preparation is centrifuged 20 min at 500 g at 4° C., the pellet is discarded and the supernatant centrifuged 1 hour at 43,000 g at 4° C. (19,000 rpm). The pellet is resuspended in 12.5 ml Lysis buffer+12.5 ml sucrose 20% and homogenized using a Polytron for 1-2 min. The protein concentration is determined by the Bradford method and aliquots are stored at −80° C. until use. For binding studies 60 mg Yttrium silicate SPA beads (Amersham®) are mixed with an aliquot of membrane in binding buffer (50 mM Tris, 120 mM sodium chloride, 5 mM potassium chloride, 2 mM calcium dichloride, 10 mM magnesium dichloride) for 15 minutes with mixing. 50 μl of bead/membrane mixture is then added to each well of a 96 well plate, followed by 50 μl of 4 nM 3H-Vasopressin (American Radiolabeled Chemicals). For total binding measurement 100 μl of binding buffer are added to the respective wells, for non-specific binding 100 μl of 8.4 mM cold vasopressin and for compound testing 100 μl of a serial dilution of each compound in 2% dimethyl sulfoxide. The plate is incubated 1 h at room temperature, centrifuged 1 min at 1000 g and counted on a Packard Top-Count. Non-specific binding counts are subtracted from each well and data is normalized to the maximum specific binding set at 100%. To calculate an IC50 the curve is fitted using a non-linear regression model (XLfit) and the Ki is calculated using the Cheng-Prussoff equation.

T1 sequence (P37288 whole entry): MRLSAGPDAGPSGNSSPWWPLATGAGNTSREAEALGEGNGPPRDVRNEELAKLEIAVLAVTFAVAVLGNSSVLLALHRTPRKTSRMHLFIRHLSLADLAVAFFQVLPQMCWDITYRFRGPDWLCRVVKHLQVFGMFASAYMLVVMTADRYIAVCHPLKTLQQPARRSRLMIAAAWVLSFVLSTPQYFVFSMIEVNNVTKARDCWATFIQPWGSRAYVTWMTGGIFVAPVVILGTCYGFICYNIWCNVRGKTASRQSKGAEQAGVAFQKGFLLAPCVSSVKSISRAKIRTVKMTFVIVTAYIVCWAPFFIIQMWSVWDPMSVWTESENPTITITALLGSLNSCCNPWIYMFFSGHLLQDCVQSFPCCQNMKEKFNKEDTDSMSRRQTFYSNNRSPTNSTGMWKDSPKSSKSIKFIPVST

SMILES	Ki [nM]
CC(C)N1Cc2cc(Cl)ccc2-n2c(nnc2[C@H]2CC[C@H](c3ccccc3)CC2)C1 [Example 30, trans-8-Chloro-5-isopropyl-1-(4-phenyl-cyclohexyl)-5,6-dihydro-4H-2,3,5,10b-tetraaza-benzo[e]azulene]	1.91
Clc1ccc2c(c1)CN(Cc1ccccn1)Cc1nnc([C@H]3CC[C@H](c4ccccc4)CC3)n1-2 [Example 31, trans-8-Chloro-1-(4-phenyl-cyclohexyl)-5-pyridin-2-ylmethyl-5,6-dihydro-4H-2,3,5,10b-tetraaza-benzo[e]azulene]	2.4
OCCN1Cc2cc(Cl)ccc2-n2c(nnc2[C@H]2CC[C@H](c3ccccc3)CC2)C1 [Example 32, trans-2-[8-Chloro-1-(4-phenyl-cyclohexyl)-4H,6H-2,3,5,10b-tetraaza-benzo[e]azulen-5-yl]-ethanol]	1.41
Clc1ccc2c(c1)CN(c1ccccn1)Cc1nnc([C@H]3CC[C@H](c4ccccc4)CC3)n1-2 [Example 33, trans-8-Chloro-1-(4-phenyl-cyclohexyl)-5-pyridin-2-yl-5,6-dihydro-4H-2,3,5,10b-tetraaza-benzo[e]azulene]	8.91

Source: patent US8420633B2 (Hoffmann-La Roche Inc., priority 2010, dated 2013)
